Measurements published in patent publication US20140274971A1, “Systems and Methods of Using Chemically Bound Antibiotics Activated by Infections” (Osteoceramics, Inc., priority 2013, published 2014).
Where two headings read alike, the source gives them in different places.

Experiments:
[1] = tested on: Staph. A.; format: cell-based, Staphylococcus aureus
Source text: (§1) The setting solution is aqueous calcium chloride.

[2] = tested on: Pseudo. A.; format: cell-based, Psuedomonus aeruginosa
Source text: as §1

[3] = tested on: staphylococcus aureus; assay: Repeated Kirby-Bauer test, ciprofloxacin-doped cement (Example 4); format: cell-based
Source text: A Kirby-Bauer test using staphylococcus aureus was repeated for ciprofloxacin-doped cement with more detail. All specimens, and the paper control, were 6 mm diameter.

[4] = tested on: E. Coli
[5] = tested on: selected bacterium; format: cell-based; conditions: for effectiveness of other tetracyclines (in words): other experiments, bound to implant
Source text: They were rinsed with deionized water and dried. […] The solutions were saved for bioactivity testing.

[6] = tested on: Bacillus cereus; assay: Kirby-Bauer method, tetracycline treated disks, periodontal bacteria; format: cell-based; conditions: disks treated with 0.1 mg/ml, 1 mg/ml and 10 mg/ml; 10^4 to 10^6 levels
Source text: (§2) Because tooth roots are in an anaerobic environment, bacteria were selected from those commonly encountered in periodontal disease for evaluation by the Kirby-Bauer method. They were ATCCJ177i: Bacillus cereus, Corynebacterium spp., Esccherichia coli, Pasteurella multocida and Staphylococcus spp. Each was doped on Mueller-Hinton agar at 10^4 to 10^6 levels.

[7] = tested on: Corynebacterium spp.; assay: as above; format: cell-based; conditions: disks treated with 0.1 mg/ml, 1 mg/ml and 10 mg/ml; 10^4 to 10^6 levels
Source text: as §2

[8] = tested on: Esccherichia coli; assay: as above; format: cell-based; conditions: disks treated with 0.1 mg/ml, 1 mg/ml and 10 mg/ml; 10^4 to 10^6 levels
Source text: as §2

[9] = tested on: Pasteurella multocida; assay: as above; format: cell-based; conditions: disks treated with 0.1 mg/ml, 1 mg/ml and 10 mg/ml; 10^4 to 10^6 levels
Source text: as §2

[10] = tested on: Staphylococcus spp.; assay: as above; format: cell-based; conditions: disks treated with 0.1 mg/ml, 1 mg/ml and 10 mg/ml; 10^4 to 10^6 levels
Source text: as §2

[11] = tested on: bacterial growth; assay: Mueller-Hinton agar cultures of concretes made of tetracycline-treated grains; format: cell-based; conditions: concretes of treated grains with gypsum, calcium aluminate or zinc phosphate cement; cured 24 hours
Method: These were separated into sizes with sieves, to produce a range of size fractions; 12-20 mesh, 20-35 mesh, 35-65 mesh, 65-270 mesh, and minus 325 mesh. […] The tetracycline bonds to the tricalcium component of the grain surfaces. […] So the tricalcium phosphate phase is interconnected throughout the volume and is exposed at 50% of the surface area. […] The surface area was calculated assuming the particles were spheres of the median radius for the sieve fraction. […] The grains changed from white to orange as a result of the treatment. These grains were used to make cements for filling bone voids, combining 65% of one fraction with 15% of the second, finer, fraction in the series, 5% of the −325 mesh fraction and 15% of cement. Different cements were used, including gypsum, calcium aluminate and zinc phosphate cements. These concretes set in 5 to 10 minutes in a wet environment. After curing 24 hours at 100% humidity and 37° C., disks of these concretes were tested in Mueller-Hinton agar cultures to determine if they would inhibit bacterial growth. […] Thus the concrete prostheses have the properties needed to treat bone voids. Note that the size of the coarse fraction 12-20, […] or 35-65 will depend on the maximum particle size that must not exceed the maximum size of the void to be filled.

[12] = 10^−2 gr/gram of calcium aluminate, 1 Day
[13] = 10^−2 gr/gram of calcium aluminate, 1 Hour
[14] = 10^−2 gr/gram of calcium aluminate, 1 Week
[15] = 10^−2 grams ciprofloxacin per gram of calcium aluminate, one week
[16] = 10^−3 gr/gram of calcium aluminate, 1 Day
[17] = 10^−3 gr/gram of calcium aluminate, 1 Hour
[18] = 10^−3 gr/gram of calcium aluminate, 1 Week
[19] = 10^−4 gr/gram of calcium aluminate, 1 Day
[20] = 10^−4 gr/gram of calcium aluminate, 1 Hour
[21] = 10^−4 gr/gram of calcium aluminate, 1 Week

SMILES: O=C(O)c1cn(C2CC2)c2cc(N3CCNCC3)c(F)cc2c1=O [ciprofloxacin, Ciprofloxacin]
- Kirby-Bauer Inhibition Zone [1, 12]: 29 mm
- Kirby-Bauer Inhibition Zone [1, 13]: 34 mm
- Kirby-Bauer Inhibition Zone [1, 14]: 32 mm
- inhibition (in words) [1, 15]: effective for one week
- Kirby-Bauer Inhibition Zone [1, 16]: 5 mm
- Kirby-Bauer Inhibition Zone [1, 17]: 27 mm
- Kirby-Bauer Inhibition Zone [1, 18]: 21 mm
- Kirby-Bauer Inhibition Zone [1, 19]: 0 mm
- Kirby-Bauer Inhibition Zone [1, 20]: 7 mm
- Kirby-Bauer Inhibition Zone [1, 21]: 0 mm
- Kirby-Bauer Inhibition Zone [2, 12]: 35 mm
- Kirby-Bauer Inhibition Zone [2, 13]: 44 mm
- Kirby-Bauer Inhibition Zone [2, 14]: 39 mm
- inhibition (in words) [2, 15]: effective for one week
- Kirby-Bauer Inhibition Zone [2, 16]: 19 mm
- Kirby-Bauer Inhibition Zone [2, 17]: 34 mm
- Kirby-Bauer Inhibition Zone [2, 18]: 21 mm
- Kirby-Bauer Inhibition Zone [2, 19]: 0 mm
- Kirby-Bauer Inhibition Zone [2, 20]: 21 mm
- Kirby-Bauer Inhibition Zone [2, 21]: 0 mm
- zone compared with control disk (in words) ([3]; 10^−2 g/g concentration): equivalent to the control disk
- zone compared with control disk (in words) ([3]; 10^−3 g/g): somewhat less
- effect of rinsing the pellet to remove surface antibiotic ([3]; rinsed vs not rinsed): had no effect
- Kirby-Bauer Inhibition Zone [4, 12]: 37 mm
- Kirby-Bauer Inhibition Zone [4, 13]: 49 mm
- Kirby-Bauer Inhibition Zone [4, 14]: 44 mm
- inhibition (in words) [4, 15]: effective for one week
- Kirby-Bauer Inhibition Zone [4, 16]: 27 mm
- Kirby-Bauer Inhibition Zone [4, 17]: 42 mm
- Kirby-Bauer Inhibition Zone [4, 18]: 33 mm
- Kirby-Bauer Inhibition Zone [4, 19]: 22 mm
- Kirby-Bauer Inhibition Zone ([4]; 10^−4 gr/gram of calcium aluminate, 1 Hour after setting, saline 37° C.): 34 mm
- Kirby-Bauer Inhibition Zone [4, 21]: 23 mm

SMILES: CN(C)[C@@H]1C(O)=C(C(N)=O)C(=O)[C@@]2(O)C(O)=C3C(=O)c4c(O)cccc4[C@@](C)(O)[C@H]3[C@H](O)[C@@H]12 [oxytetracycline]
- effectiveness of other tetracyclines (in words) [5]: effective

SMILES: CN(C)[C@@H]1C(=O)C(C(N)=O)=C(O)[C@@]2(O)C(=O)C3=C(O)c4c(O)cccc4[C@@](C)(O)[C@H]3C[C@@H]12 [tetracycline, Tetracycline]
- inhibition zones (in words) ([5]; disks made with concentrations of 1 and 10 mg/ml): effective in creating large inhibition zones
- bacterial growth adjacent to the disks (in words) [6]: prevented
- bacterial growth adjacent to the disks (in words) [7]: prevented
- bacterial growth adjacent to the disks (in words) [8]: prevented
- bacterial growth adjacent to the disks (in words) [9]: prevented
- bacterial growth adjacent to the disks (in words) [10]: prevented
- inhibition of bacterial growth by concrete disks (in words) [11]: perform in the same way as the disks in example one

SMILES: CN(C)[C@@H]1C(O)=C(C(N)=O)C(=O)[C@@]2(O)C(O)=C3C(=O)c4c(O)ccc(Cl)c4[C@@H](O)[C@H]3C[C@@H]12 [democlotetracycline]
- effectiveness of other tetracyclines (in words) [5]: effective
